Measurements from patent US20250101041A1, “POSITIVE ALLOSTERIC MODULATORS OF THE MUSCARINIC ACETYLCHOLINE RECEPTOR M4” (Vanderbilt University, priority 2022, published 2025).

Biological target: T1, human mAChR M4 (Homo sapiens, UniProt P08173)
T1 construct: expressed in transfected cells; host or cells: CHO-K1 (American Type Culture Collection), stably expressing hM4 and Gqi5
T1 sequence (P08173 1-479): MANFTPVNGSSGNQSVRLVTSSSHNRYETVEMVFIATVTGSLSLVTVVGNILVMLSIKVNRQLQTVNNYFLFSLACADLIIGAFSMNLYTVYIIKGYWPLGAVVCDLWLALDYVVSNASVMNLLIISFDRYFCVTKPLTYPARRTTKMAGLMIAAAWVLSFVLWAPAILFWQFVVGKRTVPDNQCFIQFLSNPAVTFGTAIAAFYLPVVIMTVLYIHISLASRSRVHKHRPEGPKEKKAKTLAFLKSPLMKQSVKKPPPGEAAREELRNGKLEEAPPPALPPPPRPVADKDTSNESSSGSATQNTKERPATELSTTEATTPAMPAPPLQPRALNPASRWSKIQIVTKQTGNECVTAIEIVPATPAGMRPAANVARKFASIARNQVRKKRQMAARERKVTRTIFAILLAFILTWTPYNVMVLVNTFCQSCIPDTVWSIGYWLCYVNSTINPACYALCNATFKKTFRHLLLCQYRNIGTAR
Assay: mAChR M4 cell-based functional assay: calcium mobilization (Fluo-4, FDSS), potentiation of EC20 acetylcholine response in hM4-Gqi5 CHO-K1 cells
Conditions: human M4; for Emax at 30 µM: CHO-K1, % ACh maximum at 30 μM; for EC50: potentiation of EC20 acetylcholine response, calcium mobilization
Procedure, shortened: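 CHO-K1 cells stably co-expressing human M4 and chimeric Gqi5, loaded with Fluo-4 AM (50 min, 37 °C). Compounds in 11-point 1:3 series added first; EC20 acetylcholine added at 144 s and again at 230 s. Calcium read on FDSS at 1 Hz; EC50 and Emax from four-parameter logistic fit of potentiated EC20 response.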

SMILES | Emax at 30 µM [%] | EC50 [nM]
Cc1c(C2CC2)c(N2CCc3ncc(C(F)(F)F)cc3C2)nn2c(=O)ccnc12 [Compound 1-111, 8-cyclopropyl-9-methyl-7-(3-(trifluoromethyl)-7,8-dihydro-1,6-naphthyridin-6(5H)-yl)-4H-pyrimido[1,2-b]pyridazin-4-one] | 61 | 2450
Cc1ccc(-c2cnc3c(c2)CN(c2nn4c(=O)ccnc4c(C)c2C2CC2)CC3)cn1 [Compound 1-112, 8-cyclopropyl-9-methyl-7-(3-(6-methylpyridin-3-yl)-7,8-dihydro-1,6-naphthyridin-6(5H)-yl)-4H-pyrimido[1,2-b]pyridazin-4-one] | 67 | 668
Cc1c(N2CCc3ncc(C(F)(F)F)cc3C2)nn2c(=O)ccnc2c1C1CC1 [Compound 1-113, 9-cyclopropyl-8-methyl-7-(3-(trifluoromethyl)-7,8-dihydro-1,6-naphthyridin-6(5H)-yl)-4H-pyrimido[1,2-b]pyridazin-4-one] | 73 | 262
Cc1ccc(-c2cnc3c(c2)CN(c2nn4c(=O)ccnc4c(C4CC4)c2C)CC3)cn1 [Compound 1-114, 9-cyclopropyl-8-methyl-7-(3-(6-methylpyridin-3-yl)-7,8-dihydro-1,6-naphthyridin-6(5H)-yl)-4H-pyrimido[1,2-b]pyridazin-4-one] | 73 | 615
Cc1ncccc1-c1cnc2c(c1)CN(c1nn3c(=O)cc(C(F)F)nc3c(C)c1C)CC2 [Compound 1-115, 2-(difluoromethyl)-8,9-dimethyl-7-(3-(2-methylpyridin-3-yl)-7,8-dihydro-1,6-naphthyridin-6(5H)-yl)-4H-pyrimido[1,2-b]pyridazin-4-one] | 91 | 313
Cc1c(N2CCc3ncc(-c4cnccn4)cc3C2)nn2c(=O)cc(C(F)F)nc2c1C [Compound 1-116, 2-(difluoromethyl)-8,9-dimethyl-7-(3-(pyrazin-2-yl)-7,8-dihydro-1,6-naphthyridin-6(5H)-yl)-4H-pyrimido[1,2-b]pyridazin-4-one] | 93 | 19
Cc1cc(=O)n2nc(N3CCc4ncc(-c5cnccc5C)cc4C3)c(C)c(C)c2n1 [Compound 1-117, 2,8,9-trimethyl-7-(3-(4-methylpyridin-3-yl)-7,8-dihydro-1,6-naphthyridin-6(5H)-yl)-4H-pyrimido[1,2-b]pyridazin-4-one] | 90 | 198
Cc1cc(=O)n2nc(N3CCc4ncc(-c5cncnc5)cc4C3)c(C)c(C)c2n1 [Compound 1-118, 2,8,9-trimethyl-7-(3-(pyrimidin-5-yl)-7,8-dihydro-1,6-naphthyridin-6(5H)-yl)-4H-pyrimido[1,2-b]pyridazin-4-one] | 83 | 6070
Cc1cncc(-c2cnc3c(c2)CN(c2nn4c(=O)cc(C(F)F)nc4c(C)c2C)CC3)c1 [Compound 1-119, 2-(difluoromethyl)-8,9-dimethyl-7-(3-(5-methylpyridin-3-yl)-7,8-dihydro-1,6-naphthyridin-6(5H)-yl)-4H-pyrimido[1,2-b]pyridazin-4-one] | 85 | –
Cc1cc(=O)n2nc(N3CCc4ncc(-c5cnc6ccccc6c5)cc4C3)c(C)c(C)c2n1 [Compound 1-120, 2,8,9-trimethyl-7-(3-(quinolin-3-yl)-7,8-dihydro-1,6-naphthyridin-6(5H)-yl)-4H-pyrimido[1,2-b]pyridazin-4-one] | 65 | 749
Cc1cc(=O)n2nc(N3CCc4ncc(-c5ccc(N(C)C)nc5)cc4C3)c(C)c(C)c2n1 [Compound 1-121, 7-(3-(6-(dimethylamino)pyridin-3-yl)-7,8-dihydro-1,6-naphthyridin-6(5H)-yl)-2,8,9-trimethyl-4H-pyrimido[1,2-b]pyridazin-4-one] | 83 | 722
Cc1cc(=O)n2nc(N3CCc4ncc(-c5cccnc5C)cc4C3)c(C)c(C)c2n1 [Compound 1-122, 2,8,9-trimethyl-7-(3-(2-methylpyridin-3-yl)-7,8-dihydro-1,6-naphthyridin-6(5H)-yl)-4H-pyrimido[1,2-b]pyridazin-4-one] | 93 | 2930
